Measured values: the supplement of paper PMC10307832

Key:
Experiment in all cases: relative viability (nuclei count vs DMSO), 5 days (fraction); higher = more cells survive
[1] = compound: CC(O)(CS(=O)(=O)c1ccc(F)cc1)C(=O)Nc1ccc(C#N)c(C(F)(F)F)c1 [Bicalutamide] + CCNC(=O)c1noc(-c2cc(C(C)C)c(O)cc2O)c1-c1ccc(CN2CCOCC2)cc1 [Luminespib] (partner 0.01 µM)
Method in brief: (§1)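 Lung cancer cell lines were pin-tool dosed in 1536-well plates on the day after seeding, with either a lone drug or a fixed anchor-drug dose plus five library-drug doses (not always all listed) in √10 steps. Nuclei were counted on 4× images after 5 days. Relative viability is the ratio of treated-well to vehicle-well nuclei counts, with each value a median of duplicate plates.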

[2] = compound: C(C(=O)C(=O)O)Br [Bromopyruvate] + COc1cccc2cc(-c3nc([C@H]4CC[C@H](C(=O)O)CC4)n4ncnc(N)c34)[nH]c12 [OSI-027] (partner 0.5 µM)
Method in brief: as §1

[3] = compound: C(C(=O)C(=O)O)Br [Bromopyruvate] + N=C(N)NC(=N)NCCc1ccccc1 [Phenformin] (partner 250 µM)
Method in brief: as §1

[4] = compound: C(C(=O)C(=O)O)Br [Bromopyruvate] + O=C(c1cc(Cc2n[nH]c(=O)c3ccccc23)ccc1F)N1CCN(C(=O)C2CC2)CC1 [Olaparib] (partner 8 µM)
Method in brief: as §1

UMC-11
relative viability ([1]; first compound 0.08 µM): 1.07
relative viability ([1]; first compound 0.253 µM): 1.03
relative viability ([1]; first compound 0.8 µM): 1.14
relative viability ([1]; first compound 2.53 µM): 0.949
relative viability ([2]; first compound 1 µM): 0.518
relative viability ([2]; first compound 3.162 µM): 0.452
relative viability ([2]; first compound 10 µM): 0.491
relative viability ([2]; first compound 31.62 µM): 0.533
relative viability ([2]; first compound 100 µM): 0.501
relative viability ([3]; first compound 1 µM): 0.343
relative viability ([3]; first compound 3.162 µM): 0.328
relative viability ([3]; first compound 10 µM): 0.314
relative viability ([3]; first compound 31.62 µM): 0.329
relative viability ([3]; first compound 100 µM): 0.292
relative viability ([4]; first compound 1 µM): 0.366
relative viability ([4]; first compound 3.162 µM): 0.356
relative viability ([4]; first compound 10 µM): 0.374
relative viability ([4]; first compound 31.62 µM): 0.35
relative viability ([4]; first compound 100 µM): 0.393
